Drawing on US20260015358A1, “BICYCLIC DERIVATIVES, COMPOSITIONS AND USES THEREOF” (Danatlas Pharmaceuticals Co., Ltd., priority 2023, published 2026), this text covers IC50 for 19 compounds.

For assay [1], the target named is T1, WRN [UniPro: Q14191 (WRN_HUMAN), N500-C946] (Homo sapiens (Human), UniProt Q14191). The experiment in a line: WRN unwinding assay (FORKF DNA, fluorescence). It counts as biochemical. Particulars: Table 14.
The target in assay [2] is T1, WRN [UniPro: Q14191 (WRN_HUMAN), N500-C946]. The experiment in a line: WRN ATPase assay (ADP-Glo). It counts as biochemical. The note with it: WRN enzymatic activity assay.

T1 sequence (Q14191 500-946): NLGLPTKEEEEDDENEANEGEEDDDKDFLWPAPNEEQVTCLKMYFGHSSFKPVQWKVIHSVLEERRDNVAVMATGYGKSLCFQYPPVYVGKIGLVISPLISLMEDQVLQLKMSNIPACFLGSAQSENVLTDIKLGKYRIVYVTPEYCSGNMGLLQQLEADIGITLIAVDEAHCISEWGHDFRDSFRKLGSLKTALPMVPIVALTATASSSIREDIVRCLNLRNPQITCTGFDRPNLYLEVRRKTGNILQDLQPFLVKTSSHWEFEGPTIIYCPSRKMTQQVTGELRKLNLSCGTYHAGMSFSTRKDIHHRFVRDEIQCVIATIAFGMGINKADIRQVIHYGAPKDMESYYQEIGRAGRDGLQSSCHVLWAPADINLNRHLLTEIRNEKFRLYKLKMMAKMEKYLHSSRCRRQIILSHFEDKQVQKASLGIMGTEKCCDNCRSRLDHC

For `CCc1c(N2CCN(C(=O)CNC(=O)c3ccccc3F)CC2)c(=O)n2nc(C3=CCOCC3)nc2n1CC(=O)Nc1ccc(C)s1` [Example 153, N-(2-(4-(2-(3,6-Dihydro-2H-pyran-4-yl)-5-ethyl-4-(2-((5-methylthiophen-2-yl)amino)-2-oxoethyl)-7-oxo-4,7-dihydro-[1,2,4]triazolo[1,5-a]pyrimidin-6-yl)piperazin-1-yl)-2-oxoethyl)-2-fluorobenzamide], the IC50 – broadly, the midpoint of a concentration-inhibition curve – was below 0.1 µM in assay [1] and 0.1 to 1 µM in assay [2].
Taken in the same sequence, the figures for `CCc1c(N2CCN(C(=O)CNC(=O)c3ccccc3F)CC2)c(=O)n2nc(C3=CCOCC3)nc2n1CC(=O)Nc1cc(C)cs1` [Example 154, N-(2-(4-(2-(3,6-Dihydro-2H-pyran-4-yl)-5-ethyl-4-(2-((4-methylthiophen-2-yl)amino)-2-oxoethyl)-7-oxo-4,7-dihydro-[1,2,4]triazolo[1,5-a]pyrimidin-6-yl)piperazin-1-yl)-2-oxoethyl)-2-fluorobenzamide] were below 0.1 µM and below 0.1 µM.
For the compound `CCc1c(N2CCN(C(=O)CNC(=O)c3ccccc3F)CC2)c(=O)n2nc(C3=CCOCC3)nc2n1CC(=O)Nc1cnc(C(F)(F)F)s1` [Example 157, N-(2-(4-(2-(3,6-Dihydro-2H-pyran-4-yl)-5-ethyl-7-oxo-4-(2-oxo-2-((2-(trifluoromethyl)thiazol-5-yl)amino)ethyl)-4,7-dihydro-[1,2,4]triazolo[1,5-a]pyrimidin-6-yl)piperazin-1-yl)-2-oxoethyl)-2-fluorobenzamide], the IC50 in assay [1] and in assay [2] was below 0.1 µM throughout.
Regarding `CCc1c(N2CCN(C(=O)CNC(=O)c3ccccc3F)CC2)c(=O)n2nc(C3=CCOCC3)nc2n1CC(=O)Nc1cc(Br)cs1` [Example 161, N-(2-(4-(4-(2-((4-Bromothiophen-2-yl)amino)-2-oxoethyl)-2-(3,6-dihydro-2H-pyran-4-yl)-5-ethyl-7-oxo-4,7-dihydro-[1,2,4]triazolo[1,5-a]pyrimidin-6-yl)piperazin-1-yl)-2-oxoethyl)-2-fluorobenzamide], the 50% inhibitory concentration (IC50) in assay [1] and in assay [2] was below 0.1 µM throughout.
Consider `CCc1c(N2CCN(C(=O)CNC(=O)c3ccccc3F)CC2)c(=O)n2nc(C3=CCOCC3)nc2n1CC(=O)Nc1cc(C(F)(F)F)n(C)n1` [Example 162, N-(2-(4-(2-(3,6-Dihydro-2H-pyran-4-yl)-5-ethyl-4-(2-((1-methyl-5-(trifluoromethyl)-1H-pyrazol-3-yl)amino)-2-oxoethyl)-7-oxo-4,7-dihydro-[1,2,4]triazolo[1,5-a]pyrimidin-6-yl)piperazin-1-yl)-2-oxoethyl)-2-fluorobenzamide], for which the IC50 in assay [1] and in assay [2] was 0.1 to 1 µM throughout.
For the compound `CCc1c(N2CCN(C(=O)CNC(=O)c3ccccc3F)CC2)c(=O)n2nc(C3=CCOCC3)nc2n1CC(=O)Nc1ccc(C(F)(F)F)nc1Cl` [Example 163, N-(2-(4-(4-(2-((2-Chloro-6-(trifluoromethyl)pyridin-3-yl)amino)-2-oxoethyl)-2-(3,6-dihydro-2H-pyran-4-yl)-5-ethyl-7-oxo-4,7-dihydro-[1,2,4]triazolo[1,5-a]pyrimidin-6-yl)piperazin-1-yl)-2-oxoethyl)-2-fluorobenzamide], the IC50 in assay [1] and in assay [2] was below 0.1 µM each time.
`CCc1c(N2CCN(C(=O)CNC(=O)C3CC3)CC2)c(=O)n2nc(C3=CCOCC3)nc2n1CC(=O)Nc1ccc(C(F)(F)F)cc1Cl` [Example 165, N-(2-(4-(4-(2-((2-Chloro-4-(trifluoromethyl)phenyl)amino)-2-oxoethyl)-2-(3,6-dihydro-2H-pyran-4-yl)-5-ethyl-7-oxo-4,7-dihydro-[1,2,4]triazolo[1,5-a]pyrimidin-6-yl)piperazin-1-yl)-2-oxoethyl)cyclopropanecarboxamide]: the half-inhibitory concentration (IC50) in assay [1] and in assay [2] was below 0.1 µM throughout.
Turning to `CCc1c(N2CCN(C(=O)CNC(=O)N3CCCC3)CC2)c(=O)n2nc(C3=CCOCC3)nc2n1CC(=O)Nc1ccc(C(F)(F)F)cc1Cl` [Example 166, N-(2-(4-(4-(2-((2-Chloro-4-(trifluoromethyl)phenyl)amino)-2-oxoethyl)-2-(3,6-dihydro-2H-pyran-4-yl)-5-ethyl-7-oxo-4,7-dihydro-[1,2,4]triazolo[1,5-a]pyrimidin-6-yl)piperazin-1-yl)-2-oxoethyl)pyrrolidine-1-carboxamide], the IC50 is below 0.1 µM in assay [1] and 0.1 to 1 µM in assay [2].
Take `CCOC(=O)NCC(=O)N1CCN(c2c(CC)n(CC(=O)Nc3ccc(C(F)(F)F)cc3Cl)c3nc(C4=CCOCC4)nn3c2=O)CC1` [Example 167, Ethyl (2-(4-(4-(2-((2-chloro-4-(trifluoromethyl)phenyl)amino)-2-oxoethyl)-2-(3,6-dihydro-2H-pyran-4-yl)-5-ethyl-7-oxo-4,7-dihydro-[1,2,4]triazolo[1,5-a]pyrimidin-6-yl)piperazin-1-yl)-2-oxoethyl)carbamate]: the IC50 in assay [1] and in assay [2] was below 0.1 µM in each case.
As to `CCc1c(N2CCN(C(=O)CNC(C)=O)CC2)c(=O)n2nc(C3=CCOCC3)nc2n1CC(=O)Nc1ccc(C(F)(F)F)cc1Cl` [Example 168, 2-(6-(4-(Acetylglycyl)piperazin-1-yl)-2-(3,6-dihydro-2H-pyran-4-yl)-5-ethyl-7-oxo-[1,2,4]triazolo[1,5-a]pyrimidin-4(7H)-yl)-N-(2-chloro-4-(trifluoromethyl)phenyl)acetamide], the half-inhibitory concentration (IC50) in assay [1] and in assay [2] was below 0.1 µM each time.
Consider `CCc1c(N2CCN(C(=O)CNC(=O)C(C)(C)C)CC2)c(=O)n2nc(C3=CCOCC3)nc2n1CC(=O)Nc1ccc(C(F)(F)F)cc1Cl` [Example 169, N-(2-(4-(4-(2-((2-Chloro-4-(trifluoromethyl)phenyl)amino)-2-oxoethyl)-2-(3,6-dihydro-2H-pyran-4-yl)-5-ethyl-7-oxo-4,7-dihydro-[1,2,4]triazolo[1,5-a]pyrimidin-6-yl)piperazin-1-yl)-2-oxoethyl)pivalamide], for which the concentration for half-maximal inhibition (IC50) was below 0.1 µM in assay [1] and 0.1 to 1 µM in assay [2].
Taken in the same sequence, the figures for `CCc1c(N2CCN(C(=O)CNS(C)(=O)=O)CC2)c(=O)n2nc(C3=CCOCC3)nc2n1CC(=O)Nc1ccc(C(F)(F)F)cc1Cl` [Example 170, N-(2-Chloro-4-(trifluoromethyl)phenyl)-2-(2-(3,6-dihydro-2H-pyran-4-yl)-5-ethyl-6-(4-((methylsulfonyl)glycyl)piperazin-1-yl)-7-oxo-[1,2,4]triazolo[1,5-a]pyrimidin-4(7H)-yl)acetamide] were 0.1 to 1 µM and 0.1 to 1 µM.
`CCc1c(N2CCN(C(=O)CNS(=O)(=O)c3ccccc3)CC2)c(=O)n2nc(C3=CCOCC3)nc2n1CC(=O)Nc1ccc(C(F)(F)F)cc1Cl` [Example 171, N-(2-Chloro-4-(trifluoromethyl)phenyl)-2-(2-(3,6-dihydro-2H-pyran-4-yl)-5-ethyl-7-oxo-6-(4-(2-(phenylsulfonamido)acetyl)piperazin-1-yl)-[1,2,4]triazolo[1,5-a]pyrimidin-4(7H)-yl)acetamide]: the IC50 in assay [1] and in assay [2] was 0.1 to 1 µM each time.
Regarding `CCc1c(N2CCN(C(=O)CNC(=O)N(C)C)CC2)c(=O)n2nc(C3=CCOCC3)nc2n1CC(=O)Nc1ccc(C(F)(F)F)cc1Cl` [Example 173, N-(2-Chloro-4-(trifluoromethyl)phenyl)-2-(2-(3,6-dihydro-2H-pyran-4-yl)-6-(4-((dimethylcarbamoyl)glycyl)piperazin-1-yl)-5-ethyl-7-oxo-[1,2,4]triazolo[1,5-a]pyrimidin-4(7H)-yl)acetamide], the 50% inhibitory concentration (IC50) in assay [1] and in assay [2] was 0.1 to 1 µM in each case.
Take `CCc1c(N2CCN(C(=O)CNC(=O)COC)CC2)c(=O)n2nc(C3=CCOCC3)nc2n1CC(=O)Nc1ccc(C(F)(F)F)cc1Cl` [Example 174, N-(2-Chloro-4-(trifluoromethyl)phenyl)-2-(2-(3,6-dihydro-2H-pyran-4-yl)-5-ethyl-6-(4-((2-methoxyacetyl)glycyl)piperazin-1-yl)-7-oxo-[1,2,4]triazolo[1,5-a]pyrimidin-4(7H)-yl)acetamide]: the 50% inhibitory concentration (IC50) in assay [1] and in assay [2] was below 0.1 µM each time.
Regarding `CCc1c(N2CCN(C(=O)CNC(=O)c3ccc(C(F)(F)F)cc3)CC2)c(=O)n2nc(C3=CCOCC3)nc2n1CC(=O)Nc1ccc(C(F)(F)F)cc1Cl` [Example 176, N-(2-(4-(4-(2-((2-Chloro-4-(trifluoromethyl)phenyl)amino)-2-oxoethyl)-2-(3,6-dihydro-2H-pyran-4-yl)-5-ethyl-7-oxo-4,7-dihydro-[1,2,4]triazolo[1,5-a]Pyrimidin-6-yl)piperazin-1-yl)-2-oxoethyl)-4-(trifluoromethyl)benzamide], the concentration for half-maximal inhibition (IC50) in assay [1] and in assay [2] was 0.1 to 1 µM each time.
Regarding `CCc1c(N2CCN(C(=O)CNC(=O)Cc3ccc(F)cc3)CC2)c(=O)n2nc(C3=CCOCC3)nc2n1CC(=O)Nc1ccc(C(F)(F)F)cc1Cl` [Example 177, N-(2-Chloro-4-(trifluoromethyl)phenyl)-2-(2-(3,6-dihydro-2H-pyran-4-yl)-5-ethyl-6-(4-((2-(4-fluorophenyl)acetyl)glycyl)piperazin-1-yl)-7-oxo-[1,2,4]triazolo[1,5-a]pyrimidin-4(7H)-yl)acetamide], the IC50 in assay [1] and in assay [2] was below 0.1 µM in each case.
Consider `CCc1c(N2CCN(C(=O)CNC(=O)Nc3ccccc3)CC2)c(=O)n2nc(C3=CCOCC3)nc2n1CC(=O)Nc1ccc(C(F)(F)F)cc1Cl` [Example 178, N-(2-Chloro-4-(trifluoromethyl)phenyl)-2-(2-(3,6-dihydro-2H-pyran-4-yl)-5-ethyl-7-oxo-6-(4-((phenylcarbamoyl)glycyl)piperazin-1-yl)-[1,2,4]triazolo[1,5-a]pyrimidin-4 (7H)-yl)acetamide], for which the IC50 in assay [1] and in assay [2] was below 0.1 µM each time.
For the compound `CCc1c(N2CCN(C(=O)CNC(=O)Nc3cc(F)cc(F)c3)CC2)c(=O)n2nc(C3=CCOCC3)nc2n1CC(=O)Nc1ccc(C(F)(F)F)cc1Cl` [Example 179, N-(2-Chloro-4-(trifluoromethyl)phenyl)-2-(6-(4-(((3,5-difluorophenyl)carbamoyl)glycyl)piperazin-1-yl)-2-(3,6-dihydro-2H-pyran-4-yl)-5-ethyl-7-oxo-[1,2,4]triazolo[1,5-a]pyrimidin-4(7H)-yl)acetamide], the IC50 in assay [1] and in assay [2] was below 0.1 µM in each case.
